Measured values: ChEMBL document CHEMBL5346899, “PKM2/PDK1 dual-targeted shikonin derivatives restore the sensitivity of EGFR-mutated NSCLC cells to gefitinib by remodeling glucose metabolism” (Eur J Med Chem, 2023)
Activity calls are given as the source filed them. No cut-off for these calls is given here.

How the values were obtained:
NCI-H1975 [1] = assay: cells; format: functional, cell-based; conditions: Homo sapiens, NCI-H1975, 24 h
Description: Antiproliferative activity against human NCI-H1975 cells assessed as inhibition of cell growth incubated for 24 hrs by CCK-8 assay

HCC827 [2] = assay: cells; format: functional, cell-based; conditions: Homo sapiens, HCC827, 24 h
Description: Antiproliferative activity against human HCC827 cells assessed as inhibition of cell growth incubated for 24 hrs by CCK-8 assay

HCC827 [3] = assay: Antiproliferative activity against human HCC827 cells assessed as reduction in clone size; format: functional, cell-based
NCI-H1299 = assay: Induction of apoptosis in human NCI-H1299 cells assessed as late apoptotic cells at 1 micromol/L incubated for 24 hrs by Annexin V-FITC/PI staining based analysis (reference value: 14.9%); format: functional; conditions: dose 1 µmol/L, at 1 µM
A549 [4] = assay: Induction of apoptosis in human A549 cells assessed as late apoptotic cells at 1 micromol/L incubated for 24 hrs by Annexin V-FITC/PI staining based analysis (reference value: 3.18%); format: functional; conditions: dose 1 µmol/L, at 1 µM
A549 [5] = assay: Induction of apoptosis in human A549 cells assessed as late apoptotic cells at 2 micromol/L incubated for 24 hrs by Annexin V-FITC/PI staining based analysis (reference value: 3.18%); format: functional; conditions: dose 2 µmol/L, at 2 µM
NCI-H1975 [6] = assay: Induction of apoptosis in human NCI-H1975 cells assessed as early apoptotic cells at 1 micromol/L incubated for 24 hrs by Annexin V-FITC/PI staining based analysis (reference value: 1.88%); format: functional; conditions: dose 1 µmol/L, at 1 µM
NCI-H1975 [7] = assay: Induction of apoptosis in human NCI-H1975 cells assessed as regulation of cleaved Caspase-3 expression by Western blot analysis; format: functional, cell-based
NCI-H1975 [8] = assay: Induction of apoptosis in human NCI-H1975 cells assessed as regulation of FADD expression by Western blot analysis; format: functional, cell-based
NCI-H1975 [9] = assay: Induction of mitochondrial transmembrane potential dissipation in human NCI-H1975 cells assessed as cells with low mitochondrial transmembrane potential at 0.5 micromol/L by FL-1/FL-2 channel based fluorescence analysis (reference value: 2.13%); format: functional; conditions: dose 0.5 µmol/L; at 0.5 µM
Pyruvate kinase PKM [10] = biological target: T1, Pyruvate kinase PKM (Homo sapiens, UniProt P14618); assay: Binding affinity to PKM2 (unknown origin) assessed as dissociation constant associated for 60 secs and dissociated for 90 secs by bio-layer interferometry analysis
Target sequence in this assay (P14618 whole entry): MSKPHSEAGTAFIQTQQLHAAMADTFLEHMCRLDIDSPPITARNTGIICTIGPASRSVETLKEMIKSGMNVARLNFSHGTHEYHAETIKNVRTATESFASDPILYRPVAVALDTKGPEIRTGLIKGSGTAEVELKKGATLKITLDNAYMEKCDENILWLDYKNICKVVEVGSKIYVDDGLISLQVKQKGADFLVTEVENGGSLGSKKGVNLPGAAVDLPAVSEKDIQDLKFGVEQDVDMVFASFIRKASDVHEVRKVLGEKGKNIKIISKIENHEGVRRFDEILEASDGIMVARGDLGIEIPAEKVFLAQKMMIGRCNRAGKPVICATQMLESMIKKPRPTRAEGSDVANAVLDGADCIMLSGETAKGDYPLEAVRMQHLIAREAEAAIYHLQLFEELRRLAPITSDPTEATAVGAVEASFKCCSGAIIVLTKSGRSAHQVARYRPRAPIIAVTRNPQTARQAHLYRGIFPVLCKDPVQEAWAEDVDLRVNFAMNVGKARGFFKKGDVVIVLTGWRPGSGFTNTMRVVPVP

Pyruvate kinase PKM [11] = biological target: T1, Pyruvate kinase PKM; assay: Activation of PKM2 in human NCI-H1975 cells at 1 to 2 micromol/L by Western blot analysis; format: cell-based; conditions: filed as activator, dose 1-2 µmol/L
Target sequence in this assay (P14618 2-531 limits assumed): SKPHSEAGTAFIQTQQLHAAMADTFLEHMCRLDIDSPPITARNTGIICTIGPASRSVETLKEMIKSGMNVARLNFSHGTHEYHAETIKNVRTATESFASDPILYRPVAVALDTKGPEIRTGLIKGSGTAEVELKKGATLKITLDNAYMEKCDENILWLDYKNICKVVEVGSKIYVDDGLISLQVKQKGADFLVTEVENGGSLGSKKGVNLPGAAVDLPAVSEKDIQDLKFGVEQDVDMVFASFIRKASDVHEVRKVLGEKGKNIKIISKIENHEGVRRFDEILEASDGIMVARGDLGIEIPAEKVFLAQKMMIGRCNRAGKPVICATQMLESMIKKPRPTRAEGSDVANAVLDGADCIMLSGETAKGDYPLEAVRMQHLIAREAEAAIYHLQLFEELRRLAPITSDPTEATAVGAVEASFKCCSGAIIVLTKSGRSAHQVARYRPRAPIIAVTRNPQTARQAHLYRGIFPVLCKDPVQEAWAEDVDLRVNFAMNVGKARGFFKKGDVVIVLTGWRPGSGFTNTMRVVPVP

NCI-H1975 [12] = assay: Antiproliferative activity against siRNA mediated PKM2 knockdown human NCI-H1975 cells assessed as inhibition of cell growth incubated for 24 hrs by CCK-8 assay; format: functional, cell-based; conditions: NCI-H1975, 24 h
[13] = biological target: [Pyruvate dehydrogenase (acetyl-transferring)] kinase isozyme 1, mitochondrial (Homo sapiens, UniProt Q15118); assay: Inhibition of PDK1 in human HCC827 cells at 1 to 2 micromol/L by Western blot analysis; format: cell-based; conditions: dose 1-2 µmol/L
HCC827 [14] = assay: Downregulation of PDK1 protein expression in human HCC827 cells at 1 to 2 micromol/L by Western blot analysis; format: functional, cell-based; conditions: dose 1-2 µmol/L
NCI-H1975 [15] = assay: Downregulation of PDK1 protein expression in human NCI-H1975 cells at 1 to 2 micromol/L by Western blot analysis; format: functional, cell-based; conditions: dose 1-2 µmol/L
HCC827 [16] = assay: Upregulation of PDH protein expression in human HCC827 cells at 1 to 2 micromol/L by Western blot analysis; format: functional, cell-based; conditions: dose 1-2 µmol/L
NCI-H1975 [17] = assay: Induction of apoptosis in human NCI-H1975 cells transfected with siRNA assessed as early apoptotic cells at 2 micromol/L incubated for 24 hrs by Annexin V-FITC/PI staining based analysis (reference value: 1.16%); format: functional; conditions: dose 2 µmol/L, at 2 µM
NCI-H1975 [18] = assay: Induction of apoptosis in human NCI-H1975 cells with siRNA mediated […] knockdown assessed as early apoptotic cells at 1 micromol/L incubated for 24 hrs by Annexin V-FITC/PI staining based analysis (reference value: 2.54%); format: functional; conditions: dose 1 µmol/L, at 1 µM
NCI-H1975 [19] = assay: Antitumor activity against human NCI-H1975 cells xenografted in athymic nu/nu mouse assessed as inhibition of tumor cell proliferation at 2.4 to 4.8 mg/kg, ip administered every 2 days for 11 days by Ki67 staining based analysis; format: functional, organism-based; conditions: dose 2.4-4.8 mg/kg, time 11.0 day
[20] = Acute toxicity in ICR mouse assessed as damage in vital organs at 2.4 to 38.4 mg/kg, ip measured after 15 days by H and E staining based analysis; format: organism-based; conditions: in vivo, 360 h, dose 2.4-38.4 mg/kg, time 15 day
NCI-H1975 [21] = assay: Induction of apoptosis in human NCI-H1975 cells assessed as early apoptotic cells at 0.5 micromol/L incubated for 24 hrs by Annexin V-FITC/PI staining based analysis (reference value: 2.55%); format: functional; conditions: dose 0.5 µmol/L, at 0.5 µM
NCI-H1975 [22] = assay: Induction of apoptosis in human NCI-H1975 cells assessed as late apoptotic cells at 0.5 micromol/L incubated for 24 hrs by Annexin V-FITC/PI staining based analysis (reference value: 8.61%); format: functional; conditions: dose 0.5 µmol/L, at 0.5 µM
NCI-H1975 [23] = assay: Induction of apoptosis in human NCI-H1975 cells assessed as dead cells at 0.5 micromol/L incubated for 24 hrs in presence of gefitinib by Annexin V-FITC/PI staining based analysis (reference value: 0.103%); format: functional; conditions: dose 0.5 µmol/L, at 0.5 µM

COC(=O)[C@H](CS[C@H](CC=C(C)C)C1=CC(=O)c2c(O)ccc(O)c2C1=O)NC(=O)CCCC[C@@H]1CCSC(c2ccccc2C)S1 (some centres undefined)
IC50 (NCI-H1975 [1]): 1.51 µM
IC50 (HCC827 [2]): 5.19 µM
Activity (HCC827 [3]): Dose-Dependent Effect
Activity (NCI-H1299): 16.7%
Activity (A549 [4]): 5.33%
Activity (A549 [5]): 6.46%
Activity (NCI-H1975 [6]): 3.84%
Activity (NCI-H1975 [7]): Active
Activity (NCI-H1975 [8]): Active
Activity (NCI-H1975 [9]): 11.8%
Kd (Pyruvate kinase PKM [10]): 28 µM
Activity (Pyruvate kinase PKM [11]): Active
IC50 (NCI-H1975 [12]): 8 µM
inhibition [13]: Active
Activity (HCC827 [14]): inactive
Activity (NCI-H1975 [15]): inactive
Activity (HCC827 [16]): Active
Activity (NCI-H1975 [17]): 8.24%
Activity (NCI-H1975 [18]): 1.82%
Activity (NCI-H1975 [19]): Active
Activity [20]: Non-Toxic
Activity (NCI-H1975 [21]): 1.54%
Activity (NCI-H1975 [22]): 11.2%
Activity (NCI-H1975 [23]): 0.011%
